The structures appear in SMILES notation. Values after ≈ are worked out from the molar mass of the structure shown. Where two headings read alike, the source gives them in different places.

The values below come from patent US20240317736A1, “DEUTERATED DERIVATIVE AS ATX INHIBITOR, AND APPLICATION THEREOF” (Xizang Haisco Pharmaceutical Co., Ltd., priority 2020, published 2024).

Series [1] is described as follows: Stability test of crystal form (purity and crystal form change on storage). Format: physicochemical. The conditions noted are these: for Crystal form change / Purity: 12 days. The method, then: The crystal form I (example 11) was placed at 25° C./60% RH and 40° C./75% RH for 12 days; and then the sample purity was detected, and the crystal form change was observed.

Series [2] is described as follows: Dynamic vapor sorption (DVS). The conditions noted are these: 25° C./80% RH. Format: physicochemical. The method, then: A dynamic vapor sorption (DVS) curve is obtained on DVS Intrinsic of Surface Measurement Systems (SMS). The relative humidity at 25° C. is corrected by using the deliquescence points of LiCl, Mg(NO3)2 and KCl.
A free base (9.1 g, 15.3 mmol) of 2-((2-ethyl-6-fluoro-5-(4-(2-(3-hydroxyazetidin-1-yl)-2-oxoethyl)piperazin-1-yl)pyrazolo[1,5-a]pyridin-3-yl)(methyl-d3)amino)-4-(4-fluorophenyl)thiazole-5-carbonitrile (compound A, i.e., compound 3) prepared in example 3 was added to ethanol (50 mL), warmed to 75° C., stirred for 2 h and then dissolved. The mixture was gradually cooled to room temperature under slow stirring, with a large amount of white solids precipitated out, and filtered by suction. The filter cake was washed with ethanol (10 mL), and then dried under vacuum at 40° C. for 24 h to obtain a crystal form I of compound A as a white solid (6.2 g, yield: 68%). […] (initial temperature).

Series [3] in a line: Dynamic solubility test in water and biological vehicles. It counts as physicochemical. The conditions noted are these: 37° C.; for solubility at 1 h / solubility at 2 h / solubility at 4 h / solubility at 24 h: read-out: S: Solubility; for pH: filtrate; for S: Solubility: LOQ: 0.03 μg/mL. The method, then: The dynamic solubility of the crystal form I of compound A (example 11) in water and three biological vehicles was evaluated. […] The samples at each time point were centrifuged (12000 rpm, 5 min) and filtered (0.45 μm PTFE filter), and the HPLC concentration and pH value of the filtrates were measured.
Preparation of simulated gastric fluid (SGF): 0.1 g of NaCl and 0.05 g of Triton X-100 were weighted to a 50 mL volumetric flask, and purified water was added to obtain a clear solution. 67.5 μL of concentrated hydrochloric acid (12 M) was added, and the pH was adjusted to 1.8 with 1 M hydrochloric acid or a 1 M NaOH solution. Purified water was added to a constant volume.
Preparation of simulated intestinal fluid (FaSSIF) in a fasted state: 0.17 g of anhydrous NaH2PO4, 0.021 g of NaOH and 0.31 g of NaCl were weighed to a 50 mL volumetric flask. About 48 mL of purified water was added to obtain a clear solution, and the pH was adjusted to 6.5 with 1 M hydrochloric acid or a 1 M NaOH solution. Purified water was added to a constant volume, and 0.11 g of SIF powder was weighed to obtain a clear solution.
Preparation of simulated intestinal fluid (FeSSIF) in a feeding state: 0.41 mL of glacial acetic acid, 0.20 g of NaOH and 0.59 g of NaCl were weighed to a 50 mL volumetric flask. About 48 mL of purified water was added to obtain a clear solution, and the pH was adjusted to 5.0 with 1 M hydrochloric acid or a 1 M NaOH solution. Purified water was added to a constant volume, and 0.56 g of SIF powder was weighed to obtain a clear solution.

For series [4] the following is noted: phase II clinical trial; cited from earlier work.

As usually defined, the solubility is the dissolved amount per volume that the medium holds. `[2H]C([2H])([2H])N(c1nc(-c2ccc(F)cc2)c(C#N)s1)c1c(CC)nn2cc(F)c(N3CCN(CC(=O)N4CC(O)C4)CC3)cc12` [Compound A Crystal form I, 2-((2-ethyl-6-fluoro-5-(4-(2-(3-hydroxyazetidin-1-yl)-2-oxoethyl)piperazin-1-yl)pyrazolo[1,5-a]pyridin-3-yl)(methyl-d3)amino)-4-(4-fluorophenyl)thiazole-5-carbonitrile]: the Crystal form change result in series [1] (25° C./60% RH) and in series [1] (40° C./75% RH) was “No” throughout. Also, the Purity is listed as 99.41 area % in series [1] (25° C./60% RH) and 99.44 area % in series [1] (40° C./75% RH). In series [1] (before storage), this compound showed an Initial purity of 99.76 area %. In addition, in series [2], the water adsorption worked out at 0.20%. The solubility at 1 h in series [3] (fasted-state simulated intestinal fluid (FaSSIF), pH 6.5, thermodynamic from solid, vehicle FaSSIF, 1 h) was 320 µg/mL (≈ 537 µM); in series [3] (simulated gastric fluid (SGF), pH 1.8, simulated gastric fluid, thermodynamic from solid, vehicle SGF, 1 h), 15 µg/mL (≈ 25.2 µM); in series [3] (water, thermodynamic from solid, vehicle H2O, 1 h), over 5100 µg/mL. Besides, the solubility at 2 h in series [3] (fasted-state simulated intestinal fluid (FaSSIF), pH 6.5, thermodynamic from solid, vehicle FaSSIF, 2 h) is 270 µg/mL (≈ 453 µM); in series [3] (simulated gastric fluid (SGF), pH 1.8, simulated gastric fluid, thermodynamic from solid, vehicle SGF, 2 h), 15 µg/mL (≈ 25.2 µM); in series [3] (water, thermodynamic from solid, vehicle H2O, 2 h) it was over 5200 µg/mL. Also, the solubility at 4 h in series [3] (fasted-state simulated intestinal fluid (FaSSIF), pH 6.5, thermodynamic from solid, vehicle FaSSIF, 4 h) is 360 µg/mL (≈ 604 µM); in series [3] (simulated gastric fluid (SGF), pH 1.8, simulated gastric fluid, thermodynamic from solid, vehicle SGF, 4 h) it was 14 µg/mL (≈ 23.5 µM); in series [3] (water, thermodynamic from solid, vehicle H2O, 4 h) it was over 5300 µg/mL. Moreover, the solubility at 24 h in series [3] (fasted-state simulated intestinal fluid (FaSSIF), pH 6.5, thermodynamic from solid, vehicle FaSSIF, 24 h) is 210 µg/mL (≈ 353 µM); in series [3] (simulated gastric fluid (SGF), pH 1.8, simulated gastric fluid, thermodynamic from solid, vehicle SGF, 24 h), 14 µg/mL (≈ 23.5 µM); in series [3] (water, thermodynamic from solid, vehicle H2O, 24 h), over 5300 µg/mL. Moreover, the pH is recorded as 4.9 in series [3] (vehicle FaSSIF, 1 h); 5.0 in series [3] (vehicle FaSSIF, 2 h); 4.9 in series [3] (vehicle FaSSIF, 4 h); 4.9 in series [3] (vehicle FaSSIF, 24 h); 8.5 in series [3] (vehicle FeSSIF, 1 h); 8.5 in series [3] (vehicle FeSSIF, 2 h). In addition, the pH in series [3] (vehicle FeSSIF, 4 h) is 8.5; in series [3] (vehicle FeSSIF, 24 h), 8.5; in series [3] (vehicle H2O, 1 h), 2.0; in series [3] (vehicle H2O, 2 h), 2.2; in series [3] (vehicle H2O, 4 h) it was 2.0; in series [3] (vehicle H2O, 24 h) it was 2.1. For the same compound, the pH in series [3] (vehicle SGF, 1 h) is listed as 6.4; in series [3] (vehicle SGF, 2 h), 6.5; in series [3] (vehicle SGF, 4 h) it was 6.4; in series [3] (vehicle SGF, 24 h), 6.4. Moreover, the “S: Solubility” value in series [3] (vehicle FeSSIF, 1 h) is on record as “<LOQ”; in series [3] (vehicle FeSSIF, 2 h), “<LOQ”; in series [3] (vehicle FeSSIF, 4 h) it was “<LOQ”; in series [3] (vehicle FeSSIF, 24 h) it was “<LOQ”.

On to `CCc1nc2c(C)cc(N3CCN(CC(=O)N4CC(O)C4)CC3)cn2c1N(C)c1nc(-c2ccc(F)cc2)c(C#N)s1` [GLPG-1690], for which, in series [4], the “Curative effect in IPF” value is on record as “good curative effect”.
